Results from US12228572B2, “Enhanced expression of polo-like kinase 3 (PLK3) in human immunodeficiency virus (HIV)-infected cells” (priority 2021, dated 2025).

Biological target: T1, human PLK3 (Homo sapiens, UniProt Q9H4B4)
T1 construct: expressed in transfected cells
Assay type: cell-based

T1 sequence (Q9H4B4 whole entry): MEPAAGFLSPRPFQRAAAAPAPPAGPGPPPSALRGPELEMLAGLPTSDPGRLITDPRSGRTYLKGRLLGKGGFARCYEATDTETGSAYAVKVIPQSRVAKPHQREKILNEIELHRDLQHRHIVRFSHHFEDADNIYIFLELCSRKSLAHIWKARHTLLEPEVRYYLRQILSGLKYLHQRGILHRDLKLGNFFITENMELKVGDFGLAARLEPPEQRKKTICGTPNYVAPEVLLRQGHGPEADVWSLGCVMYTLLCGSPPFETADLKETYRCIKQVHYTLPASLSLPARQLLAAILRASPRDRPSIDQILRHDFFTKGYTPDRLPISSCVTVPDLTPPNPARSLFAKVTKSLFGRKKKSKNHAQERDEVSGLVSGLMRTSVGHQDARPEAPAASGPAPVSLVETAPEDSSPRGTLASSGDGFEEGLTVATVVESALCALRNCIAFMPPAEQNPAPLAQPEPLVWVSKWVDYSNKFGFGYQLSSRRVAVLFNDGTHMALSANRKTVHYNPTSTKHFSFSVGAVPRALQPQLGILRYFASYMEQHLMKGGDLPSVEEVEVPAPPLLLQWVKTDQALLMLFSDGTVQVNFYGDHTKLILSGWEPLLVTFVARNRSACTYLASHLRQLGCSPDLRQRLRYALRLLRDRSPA

How did the “effect on the anti-HIV-1 ability of human PLK3” value turn out when `COc1cc2ncn(-c3cc(OCc4ccccc4C(F)(F)F)c(C(N)=O)s3)c2cc1OC` [GW843682X] was run?
The value was “can inhibit the anti-HIV-1 ability of human PLK3”.

What about the “expression level of PLK3” value of the same compound?
The value was “not changed”.
